Paper PMC7560626, “Active site competition is the mechanism for the inhibition of lipoprotein-associated phospholipase A2 by detergent micelles or lipoproteins and for the efficacy reduction of darapladib” (Scientific Reports, 2020)
Where two headings read alike, the source gives them in different places. Each block holds one compound with its values, some of them ahead of it.

Columns and labels:
Lp-PLA2 [1] = biological target: T1, Lp-PLA2 (Homo sapiens, UniProt Q13093); assay: Kinetics of hydrolysis of 14:0 NPS-PC by recombinant Lp-PLA2; format: biochemical
T1 sequence (Q13093 22-441): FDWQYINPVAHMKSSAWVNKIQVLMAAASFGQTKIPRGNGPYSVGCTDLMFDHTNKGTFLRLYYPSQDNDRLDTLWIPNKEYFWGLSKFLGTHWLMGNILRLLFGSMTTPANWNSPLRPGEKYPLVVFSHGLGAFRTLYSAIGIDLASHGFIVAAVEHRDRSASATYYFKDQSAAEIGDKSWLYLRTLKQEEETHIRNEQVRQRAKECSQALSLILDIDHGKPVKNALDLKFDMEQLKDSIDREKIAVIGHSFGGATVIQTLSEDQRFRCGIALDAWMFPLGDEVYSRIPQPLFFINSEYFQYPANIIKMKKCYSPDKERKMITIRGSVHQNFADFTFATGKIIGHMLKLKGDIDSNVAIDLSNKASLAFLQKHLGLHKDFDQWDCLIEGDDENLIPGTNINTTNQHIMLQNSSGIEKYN
Procedure: (a) Fitting of kinetic model for hydrolysis of 14:0 NPS-PC in the absence and presence of 10 mM CHAPS. […] Details are in Experiment Procedures. (c) Determination of CMC for 14:0 NPS-PC and CHAPS by anisotropy of polarized fluorescence using fluorescein as probe. Details are in Experiment Procedures.
Lp-PLA2 activity was assayed under different conditions and different methods were used. […] Purified recombinant Lp-PLA2 in storage buffer was diluted into TBS or PBS, pH 7.4–7.6, at the concentration of 1 µg/ml and 20 µl of the solution were used for each reaction. […] Generally, hydrolysis of 14:0 NPS-PC was monitored at 405 nm for 5 min under ambient temperature for all kinetic assays. […] Lp-PLA2 kinetic assays were performed in the same assay buffer with 14:0 NPS-PC concentrations as indicated. Assays were carried out in 96-well plates using a SpectraMax m2e plate reader. Hydrolysis of 14:0 NPS-PC was monitored at 405 nm for 5 min under ambient temperature. Serum Lp-PLA2 activity and mass concentration were measured by using PLAC activity and mass test kits (diaDexus) following the manufacturer's instruction. PLAC mass measurements were performed by manual ELISA and PLAC activity measurements were carried out by the Beckman Coulter AU400 analyzer as described in a previous publication. Twenty or forty μl of the fractionated sample per tube were used, depending on the Lp-PLA2 concentration of the samples. Ten mM CHAPS-modified PLAC ELISA test kits were made by adding solid CHAPS to the assay buffer to the final concentration of 10 mM. The assays follow the same instructions as the unmodified PLAC mass test kits. Other Lp-PLA2 activity assays are as indicated in figures or other experimental sections.

[2] = CMC by polarized fluorescence anisotropy with fluorescein as probe; format: physicochemical; conditions: TBS, pH 7.4
Procedure: CMC of CHAPS and 14:0 NPS-PC were determined by polarized fluorescence anisotropy based on the method by Thorsteinsson et al.[21] with modification in a Varian Cary Eclipse fluorescence spectrophotometer using fluorescein as probe. Fluorescein was dissolved in TBS, pH 7.4, at final concentration of 0.1 µM. Solid CHAPS (control) or 14:0 NPS-PC was dissolved in TBS-fluorescein solution at concentrations indicated in figure and subjected to serial dilution in the same buffer. All fleshly prepared solutions were measured for fluorescence emission at 520 nm (excited at 490 nm) and compared the emission optics for the horizontal orientation to the vertical orientation. The anisotropy ratio of fluorescence intensities was plotted against the concentration incrementation of CHAPS or 14:0 NPS-PC. The anisotropy ratio was calculated as the followings. Anisotropyratior=IVV-G×IVH÷IVV+2×G×IVH where IVV indicates the intensity with vertically polarized excitation and vertical polarization on the detected emission. IVH indicates the intensity when using a vertical polarizer on the excitation and horizontal polarizer on the emission. G is a grating factor used as a correction for the instrument’s differential transmission of the two orthogonal vector orientations.

[3] = Distribution in bulk phase, detergent micelles and lipoproteins by SEC (TSKgel G3000SWXL); format: physicochemical
Procedure: Figure 8 Distribution of 14:0 NPS-PC and darapladib under different conditions. Assay methods are described in Experimental Procedures. (a) Distribution of 14:0 NPS-PC in TBS, pH 7.4, with and without detergents. Twenty µl of 14:0 NPS-PC at 10 µM were resolved by a TSKgel G3000SWXL column in TBS, pH 7.4, containing no detergent, 10 mM CHAPS or 60 µM Tween-20. Absorbance at 260 nm were monitored for 14:0 NPS-PC. Bulk phase is after fraction number 17 or after elution time 17 min. (b) Distribution of darapladib in TBS, pH 7.4, with and without detergents. Forty µl of darapladib in mobile phase buffer at 0.2 µM were resolved by a TSKgel G3000SWXL column in TBS, pH 7.4, containing no detergent, 10 mM CHAPS or 600 µM Tween-20. Relative darapladib concentration in each fraction was shown by inhibition of spiked Lp-PLA2. (c) Distribution of darapladib in TBS, pH 7.4, containing HDL or LDL. Forty µl of 1 mg/ml HDL or LDL with or without 0.2 µM darapladib were resolved by a TSKgel G3000SWXL column in TBS, pH 7.4. Relative darapladib concentration in each fraction was quantitated by inhibition of spiked Lp-PLA2. (d) Distribution of darapladib in human serum. Forty µl of neat human serum with or without 150 µM darapladib under the conditions as indicated were resolved by a TSKgel G3000SWXL column in TBS, pH 7.4. Relative darapladib concentration in each fraction was determined by inhibition of spiked Lp-PLA2.
Fractionation chromatography was carried out on an Akta10 or Akta100 by using a 10 mm × 300 mm Sperose-6 column at ambient temperature with the flow rate of 0.3 ml per minute. Fifty to two hundred µl of serum samples were injected per run depending on the Lp-PLA2 concentrations of the samples after the column was equilibrated with the running buffer (PBS, pH 7.2). Fraction collection was started at 21 min after sample injection and the collection volume was 0.6 ml/tube. Distribution of 14:0 NPS-PC and darapladib were carried out by separation of 20 – 40 µl of samples on a TSKgel G3000SWXL (7.8 mm × 30 cm, 5 µm) in TBS, pH 7.4, with and without detergents using a HPLC at flow rate of 0.8 ml/min. Fractions were collected at 1 min per tube starting at 6 min and ending at 21 min. Signal of 14:0 NPS-PC was detected by monitoring at 260 nm. Darapladib were assayed based on its inhibition of Lp-PLA2 activity. To one hundred µl of fraction, 10 µl of Lp-PLA2 at the concentration of approximately 0.5 µg/ml were added and the mixture was incubated at ambient temperature for 30 min with shaking. Reaction was started by adding 50 µl of mixture of CHAPS, SNS (sodium 1-nonane sulfonate) and 14:0 NPS-PC in buffer of 150 mM HEPES, pH 7.5, containing 12 mM EDTA. The final concentrations of CHAPS, SNS and 14:0 NPS-PC were 5 mM, 10 mM and 50 µM respectively. The hydrolysis reaction was monitored at 405 nm for 5 min. Fractions were also assayed for residual Lp-PLA2 activity by mixing in 100 µl fraction with 50 µl buffer of 150 mM HEPES, pH 7.5, containing 30 mM SNS, 30 mM CHAPS, 12 mM EDTA and 1.6 mM 14:0 NPS-PC.

[4] = in Fig. 1a; source not stated; cited from earlier work
Lp-PLA2 [5] = tested on: Lp-PLA2; parameters: method as in PMID 25173516, PMID 24678955; conditions: 160 mg daily for 12 weeks; cited from earlier work

- Hill slope of the substrate titration curve (Lp-PLA2 [1]; absence of 10 mM CHAPS): approximately 2.0
- Hill slope of the substrate titration curve (Lp-PLA2 [1]; presence of 10 mM CHAPS): approximately 1.0
- Km (Lp-PLA2 [1]; with 10 mM CHAPS): 238 ± 11.7 µM
- Vmax (Lp-PLA2 [1]; with 10 mM CHAPS): 187 ± 2 nmol/min/mL
- Km (Lp-PLA2 [1]; without CHAPS): 187 ± 18.5 µM
- Vmax (Lp-PLA2 [1]; without CHAPS): 191 ± 5 nmol/min/mL
- CMC [2]: 0.5 to 1 mM
- form in bulk phase ([3]; 10 µM in TBS pH 7.4, absence of detergents): existed only as monomer
- monomeric fraction detected in bulk ([3]; 10 µM in TBS pH 7.4 in presence of detergents): Less than 5%
- fraction in mixed micelles ([3]; 10 µM in TBS pH 7.4 with 10 mM CHAPS or 60 µM Tween-20): > 95%
Compound: CCCCCCCCCCCCCC(=O)OC[C@H](COP(=O)([O-])OCC[N+](C)(C)C)OC(=O)CCC(=O)Oc1ccc([N+](=O)[O-])cc1 [14:0 NPS-PC, 1-myristoyl-2-(4-nitrophenylsuccinyl)-sn-glycero-3-phosphocholine]

Compound: C[C@H](CCC(=O)NCCC[N+](C)(C)CCCS(=O)(=O)[O-])[C@H]1CC[C@H]2[C@@H]3[C@H](O)C[C@@H]4C[C@H](O)CC[C@]4(C)[C@H]3C[C@H](O)[C@]12C [CHAPS, 3-[(3-Cholamidopropyl)dimethylammonio]-1-propanesulfonate]
- CMC [2]: 5 to 10 mM
- CMC [4]: 6 to 10 mM

Compound: C[C@@H]1CC[C@@]2(OC1)O[C@H]1[C@@H](O)[C@H]3[C@@H]4CC[C@H]5C[C@@H](O[C@@H]6O[C@H](CO)[C@H](O[C@@H]7O[C@H](CO)[C@@H](O)[C@H](O[C@@H]8OC[C@@H](O)[C@H](O)[C@H]8O)[C@H]7O[C@@H]7O[C@H](CO)[C@H](O)[C@H](O[C@@H]8O[C@H](CO)[C@@H](O)[C@H](O)[C@H]8O)[C@H]7O)[C@H](O)[C@H]6O)[C@H](O)C[C@]5(C)[C@H]4CC[C@]3(C)[C@H]1[C@@H]2C [Digitonin]
- CMC [4]: 0.09 mM

Compound: CCN(CC)CCN(Cc1ccc(-c2ccc(C(F)(F)F)cc2)cc1)C(=O)Cn1c(SCc2ccc(F)cc2)nc(=O)c2c1CCC2 [darapladib]
- detection in TBS buffer (solubility) ([3]; 0.2 µM in TBS pH 7.4, absence of detergents): not detectable
- solubilization by detergents ([3]; 0.2 µM in TBS pH 7.4 with 10 mM CHAPS or 0.6 mM Tween-20): solubilized
- reduction of Lp-PLA2 activity (Lp-PLA2 [5]): approximately 66%

Compound: Triton X-100
- CMC [4]: 0.3 mM

Compound: Tween-20
- mechanism of inhibition of Lp-PLA2 (Lp-PLA2 [1]; Lineweaver–Burk plots at different Tween-20 concentrations): competitive
- CMC [4]: 0.06 mM
